Columns and labels:
[1] = test system: Stat3-dependent luciferase reporter (pLucTKS3); experiment: Stat3-dependent luciferase reporter in NIH3T3/v-Src; format: cell-based, mouse; settings: NIH3T3/v-Src stably expressing pLucTKS3; 36-h treatment
Description: Positions of STATs:DNA complexes or proteins in gel are labeled; control lanes (0) represent nuclear extracts treated with 0.05% DMSO, or nuclear extracts or whole-cell lysates prepared from 0.05% DMSO-treated cells. Data are representative of 3-4 independent determinations. **—<0.01;
Normal mouse fibroblasts (NIH3T3) and counterparts transformed by v-Src (NIH3T3/v-Src), v-Ras (NIH3T3/v-Ras) or overexpressing the human epidermal growth factor (EGF) receptor (NIH3T3/hEGFR), and the human breast cancer (MDA-MB-231) and pancreatic cancer (Panc-1) cells have all been previously reported (15,27-29). The normal human pancreatic duct epithelial cells (HPDEC) was a kind gift from Dr. Tsao, (OCI, UHN-PMH, Toronto) (30), Stat3 knockout mouse embryonic fibroblasts was generously provided by Dr. Poli (31), and the mouse thymic epithelial stromal cells (TE-71) was a generous gift from Dr. Farr (32). The Stat3dependent reporter, pLucTKS3 and the v-Src transformed mouse fibroblasts that stably express pLucTKS3 have been previously reported (15, 33). Cells were grown in Dulbecco's modified Eagle's medium (DMEM) containing 10% heat-inactivated fetal bovine serum, or in the case of HPDEC, they were grown in Keratinocyte-SFM media supplemented with 0.2 ng EGF, 30 μg/ml bovine pituitary extract and containing antimycol.

[2] = test system: NIH3T3/v-Src, MDA-MB-231 and Panc-1 cells; experiment: Viable cell numbers and growth (CyQuant, trypan blue exclusion), cells with aberrant Stat3; format: cell-based, mouse, human
[3] = test system: c-Myc, Bcl-xL, VEGF, and MMP-9 proteins; experiment: Immunoblotting of Stat3-regulated gene products in MDA-MB-231 and Panc-1 cells; format: cell-based, human; settings: 48 h-treatment
Experimental: Immunoprecipitation from whole-cell lysates and SDS/PAGE and Western blotting analysis were performed as previously described (33,38).
Known Stat3 downstream target genes are key in the dysregulated biological processes promoted by aberrant Stat3 (9, 20, 42).

[4] = increasing concentrations, 24-144 h

**Q.** Which “induction of the Stat3-dependent reporter” value [1] does the source give for `Cc1ccc(S(=O)(=O)N(C)CC(=O)N(Cc2ccc(C3CCCCC3)cc2)c2ccc(C(=O)O)c(O)c2)cc1` [S3I-201.1066] here?
**A.** significantly (p<0.01) repressed

**Q.** What about the “concentrations at which antitumor cell effects occurred” value [2] of the same molecule?
**A.** 30 to 50 µM

**Q.** What about the “growth (trypan blue exclusion)” value [2, 4] of the same molecule?
**A.** growth inhibited

**Q.** What about the viable cell numbers [2, 4] of the same molecule?
**A.** significantly reduced viable cell numbers

**Q.** And the “expression of c-Myc, Bcl-xL, VEGF, and MMP-9 proteins” value [3]?
**A.** significantly suppressed

— patent publication US8895746B2 (University of Central Florida Research Foundation, Inc., priority 2009, dated 2014)
